In US8710055B2, “Triazolylphenyl sulfonamides as serine/threonine kinase inhibitors” (Boehringer Ingelheim International GmbH, priority 2010, dated 2014):

System: SK-MEL-28 cells (B-RAF V600E mutated)
Test: Inhibition of the proliferation of cultivated human melanoma cells (SK-MEL-28), AlamarBlue
Type: cell-based
Settings: 72 h incubation
Experimental: Measurement of the Inhibition of the Proliferation of Cultivated Human Melanoma Cells (SK-MEL-28, B-RAF^[…] Mutated)
For measuring the proliferation of cultivated human tumour cells, cells of the melanoma cell line SK-MEL-28 [from American Type Culture Collection (ATCC)] are cultivated in MEM medium, supplemented with 10% foetal calf serum, 2% sodium bicarbonate, 1 mM sodium pyruvate, 1% non-essential amino acids (e.g. from Cambrex, # BE13-114E) and 2 mM glutamine. SK-MEL-28 cells are placed in 96-well flat bottomed dishes in a density of 2500 cells per well in supplemented MEM medium (see above) and incubated overnight in an incubator (at 37° C. and 5% CO2). The active substances are added to the cells in different concentrations, so that a concentration range of 50 μM to 3.2 nM is covered. If necessary the initial concentration of 50 μM is changed to 10 μM or 2 μM and further dilution is carried out accordingly (up to 0.6 nM or 0.12 nM). After an incubation period of a further 72 h 20 μL AlamarBlue reagent (Serotec Ltd., # BUF012B) are added to each well and the cells are incubated for a further 3-6 h. The colour change of the AlamarBlue reagent is determined in a fluorescence spectrophotometer (e.g. Gemini, Molecular Devices). EC50 values are calculated using a software program (GraphPadPrizm).

SMILES | EC50
CCCS(=O)(=O)Nc1ccc(F)c(-n2cc(-c3cncc(OC)c3)nn2)c1F [Example I-2] | 216 nM
CCCS(=O)(=O)Nc1ccc(F)c(-n2cc(-c3cncc(N4CCN(CCOCC)CC4)c3)nn2)c1F [Example I-3] | 82 nM
CCCS(=O)(=O)Nc1ccc(F)c(-n2cc(-c3cncc(C)c3)nn2)c1F [Example I-4] | 535 nM
CCCS(=O)(=O)Nc1ccc(F)c(-n2cc(-c3ccc(N)nc3)nn2)c1F [Example I-5] | 1640 nM
CCCS(=O)(=O)Nc1ccc(F)c(-n2cc(-c3ccc(NC(C)=O)nc3)nn2)c1F [Example I-6] | 559 nM
CCCS(=O)(=O)Nc1ccc(F)c(-n2cc(-c3cncc(Br)c3)nn2)c1F [Example I-7] | 279 nM
CCCS(=O)(=O)Nc1ccc(F)c(-n2cc(-c3cncnc3)nn2)c1F [Example I-11] | 506 nM
CCCS(=O)(=O)Nc1ccc(F)c(-n2cc(-c3cncc(N4CCOCC4)c3)nn2)c1F [Example I-12] | 201 nM
CCCS(=O)(=O)Nc1ccc(F)c(-n2cc(-c3cnc(NC4CCN(CCOC)CC4)nc3)nn2)c1F [Example I-13] | 1020 nM
CCCS(=O)(=O)Nc1ccc(F)c(-n2cc(-c3cnn(C)c3C)nn2)c1F [Example I-14] | 1720 nM
CCCS(=O)(=O)Nc1ccc(F)c(-n2cc(-c3cccnc3)nn2)c1F [Example I-15] | 1820 nM
CCCS(=O)(=O)Nc1ccc(F)c(-n2cc(-c3cncc(F)c3)nn2)c1F [Example I-17] | 1260 nM
COc1cncc(-c2cn(-c3c(F)ccc(NS(=O)(=O)C(C)C)c3F)nn2)c1 [Example I-19] | 493 nM
COc1cncc(-c2cn(-c3c(F)ccc(NS(=O)(=O)CC(C)C)c3F)nn2)c1 [Example I-25] | 158 nM
CCCS(=O)(=O)Nc1ccc(F)c(-n2cc(-c3cncc(N(C)CCOC)c3)nn2)c1F [Example I-30] | 1230 nM
CCCS(=O)(=O)Nc1ccc(F)c(-n2cc(-c3cncc(N(C)CCN4CCOCC4)c3)nn2)c1F [Example I-31] | 1450 nM
CCCS(=O)(=O)Nc1ccc(F)c(-n2cc(-c3cncc(-n4cnc(C)c4)c3)nn2)c1F [Example I-32] | 114 nM
CCCS(=O)(=O)Nc1ccc(F)c(-n2cc(-c3cncc(OC4CCOCC4)c3)nn2)c1F [Example I-33] | 671 nM
CCCS(=O)(=O)Nc1ccc(F)c(-n2cc(-c3cncc(OC(C)C)c3)nn2)c1F [Example I-34] | 218 nM
CCCS(=O)(=O)Nc1ccc(F)c(-n2cc(-c3cncc(OCC)c3)nn2)c1F [Example I-35] | 358 nM
CCCS(=O)(=O)Nc1ccc(F)c(-n2cc(-c3cncc(OCCOC)c3)nn2)c1F [Example I-36] | 589 nM
CCCS(=O)(=O)Nc1ccc(F)c(-n2cc(-c3cncc(OCCN(C)C(C)C)c3)nn2)c1F [Example I-37] | 928 nM
COc1cncc(-c2cn(-c3c(F)ccc(NS(=O)(=O)c4cc(F)ccc4F)c3F)nn2)c1 [Example I-38] | 363 nM

SMILES | EC50
CCCS(=O)(=O)Nc1ccc(Cl)c(-n2cc(-c3cncc(OC)c3)nn2)c1F [Example I-39] | 145 nM
CCS(=O)(=O)Nc1ccc(Cl)c(-n2cc(-c3cncc(OC)c3)nn2)c1F [Example I-40] | 327 nM
COc1cncc(-c2cn(-c3c(Cl)ccc(NS(=O)(=O)C(C)C)c3F)nn2)c1 [Example I-41] | 403 nM
COc1cncc(-c2cn(-c3c(F)ccc(NS(=O)(=O)c4cccnc4)c3F)nn2)c1 [Example I-42] | 292 nM
CCCCS(=O)(=O)Nc1ccc(F)c(-n2cc(-c3cncc(OC)c3)nn2)c1F [Example I-43] | 432 nM
COc1cncc(-c2cn(-c3c(F)ccc(NS(=O)(=O)c4ccoc4)c3F)nn2)c1 [Example I-45] | 24 nM
COc1cncc(-c2cn(-c3c(F)ccc(NS(=O)(=O)CC4CC4)c3F)nn2)c1 [Example I-46] | 480 nM
COc1cncc(-c2cn(-c3c(F)ccc(NS(=O)(=O)c4ccco4)c3F)nn2)c1 [Example I-47] | 159 nM
CCCS(=O)(=O)Nc1ccc(F)c(-n2cc(-c3cncc(-n4cc(C)nc4C)c3)nn2)c1F [Example I-48] | 545 nM
CCCS(=O)(=O)Nc1ccc(F)c(-n2cc(-c3cncc(N4CCNCC4)c3)nn2)c1F [Example I-50] | 493 nM
CCCS(=O)(=O)Nc1ccc(F)c(-n2cc(-c3cncc(N4CCN(CC#N)CC4)c3)nn2)c1F [Example I-52] | 153 nM
O=S(=O)(Nc1ccc(F)c(-n2cc(-c3cncc(N4CCN(CC5CC5)CC4)c3)nn2)c1Cl)c1ccoc1 [Example I-54] | 7 nM
COc1cncc(-c2cn(-c3c(F)ccc(NS(=O)(=O)c4ccoc4)c3Cl)nn2)c1 [Example I-55] | 32 nM
CCCS(=O)(=O)Nc1ccc(F)c(-n2cc(-c3cncc(-n4cnc(C(F)(F)F)c4)c3)nn2)c1F [Example I-57] | 306 nM
CC(C)N1CCN(c2cncc(-c3cn(-c4c(F)ccc(NS(=O)(=O)c5ccoc5)c4F)nn3)c2)CC1 [Example I-61] | 10 nM
CCCS(=O)(=O)Nc1ccc(F)c(-n2cc(-c3cncc(N4CCN(C(C)C)CC4)c3)nn2)c1Cl [Example I-63] | 44 nM
CCCS(=O)(=O)Nc1ccc(F)c(-n2cc(-c3cncc(N4CCN(CC5CC5)CC4)c3)nn2)c1Cl [Example I-64] | 38 nM
CCCS(=O)(=O)Nc1ccc(F)c(-n2cc(-c3cncc(N4CCN(CC)CC4)c3)nn2)c1Cl [Example I-66] | 55 nM
O=S(=O)(Nc1ccc(F)c(-n2cc(-c3cncc(N4CCN(C5CC5)CC4)c3)nn2)c1Cl)c1ccoc1 [Example I-67] | 4 nM
CC(C)N1CCN(c2cncc(-c3cn(-c4c(F)ccc(NS(=O)(=O)c5ccoc5)c4Cl)nn3)c2)CC1 [Example I-68] | 6 nM
CC(C)(C)N1CCN(c2cncc(-c3cn(-c4c(F)ccc(NS(=O)(=O)c5ccoc5)c4Cl)nn3)c2)CC1 [Example I-69] | 5 nM
O=S(=O)(Nc1ccc(F)c(-n2cc(-c3cncc(Br)c3)nn2)c1Cl)c1ccoc1 [Example I-70] | 73 nM
O=S(=O)(Nc1ccc(F)c(-n2cc(-c3cncc(Cl)c3)nn2)c1Cl)c1ccoc1 [Example I-71] | 61 nM

The next lines start with the values.

EC50 | SMILES
113 nM | CCCS(=O)(=O)Nc1ccc(F)c(-n2cc(-c3cncc(N4CCN(CC)CC4)c3)nn2)c1F [Example I-1]
305 nM | CCCS(=O)(=O)Nc1ccc(F)c(-n2cc(-c3cncc(N4CCC(N5CCOCC5)CC4)c3)nn2)c1F [Example I-8]
132 nM | CCCS(=O)(=O)Nc1ccc(F)c(-n2cc(-c3cncc(N4CCN(C(C)(C)C)CC4)c3)nn2)c1F [Example I-9]
107 nM | CCCS(=O)(=O)Nc1ccc(F)c(-n2cc(-c3cncc(N4CCN(CC5CC5)CC4)c3)nn2)c1F [Example I-10]
87 nM | CCCS(=O)(=O)Nc1ccc(F)c(-n2cc(-c3cncc(N4CCN(CCOC(C)C)CC4)c3)nn2)c1F [Example I-16]
75 nM | CCCS(=O)(=O)Nc1ccc(F)c(-n2cc(-c3cncc(N4CCN(C5CC5)CC4)c3)nn2)c1F [Example I-18]
245 nM | CC(C)S(=O)(=O)Nc1ccc(F)c(-n2cc(-c3cncc(N4CCN(C(C)(C)C)CC4)c3)nn2)c1F [Example I-20]
314 nM | CC(C)N1CCN(c2cncc(-c3cn(-c4c(F)ccc(NS(=O)(=O)C(C)C)c4F)nn3)c2)CC1 [Example I-21]
231 nM | CC(C)S(=O)(=O)Nc1ccc(F)c(-n2cc(-c3cncc(N4CCN(CC5CC5)CC4)c3)nn2)c1F [Example I-22]
459 nM | CC(C)S(=O)(=O)Nc1ccc(F)c(-n2cc(-c3cncc(N4CCN(C)CC4)c3)nn2)c1F [Example I-23]
117 nM | CC(C)CS(=O)(=O)Nc1ccc(F)c(-n2cc(-c3cncc(N4CCN(C)CC4)c3)nn2)c1F [Example I-24]
98 nM | CC(C)CS(=O)(=O)Nc1ccc(F)c(-n2cc(-c3cncc(N4CCN(C(C)C)CC4)c3)nn2)c1F [Example I-26]
96 nM | CC(C)CS(=O)(=O)Nc1ccc(F)c(-n2cc(-c3cncc(N4CCN(C(C)(C)C)CC4)c3)nn2)c1F [Example I-27]
88 nM | CC(C)CS(=O)(=O)Nc1ccc(F)c(-n2cc(-c3cncc(N4CCN(CC5CC5)CC4)c3)nn2)c1F [Example I-28]
37 nM | CC(C)CS(=O)(=O)Nc1ccc(F)c(-n2cc(-c3cncc(N4CCN(C5CC5)CC4)c3)nn2)c1F [Example I-29]
114 nM | CCCS(=O)(=O)Nc1ccc(F)c(-n2cc(-c3cncc(N4CCN(C5COC5)CC4)c3)nn2)c1F [Example I-51]
68 nM | C#CCN1CCN(c2cncc(-c3cn(-c4c(F)ccc(NS(=O)(=O)CCC)c4F)nn3)c2)CC1 [Example I-53]
675 nM | COCCS(=O)(=O)Nc1ccc(F)c(-n2cc(-c3cncc(N4CCN(C5CC5)CC4)c3)nn2)c1F [Example I-56]
71 nM | CCCS(=O)(=O)Nc1ccc(F)c(-n2cc(-c3cncc(N4CCN(C5CCOC5)CC4)c3)nn2)c1F (centres unmarked) [Example I-58]
98 nM | CCCS(=O)(=O)Nc1ccc(F)c(-n2cc(-c3cncc(N4CCN(C5CCC5)CC4)c3)nn2)c1F [Example I-59]
9 nM | O=S(=O)(Nc1ccc(F)c(-n2cc(-c3cncc(N4CCN(C5CC5)CC4)c3)nn2)c1F)c1ccoc1 [Example I-60]
32 nM | CCCS(=O)(=O)Nc1ccc(F)c(-n2cc(-c3cncc(N4CCN(C5CC5)CC4)c3)nn2)c1Cl [Example I-65]
